Data reported in patent EP0311100A2, “Derivatives of dideoxycytidine, their preparation and pharmaceutical use” (F. HOFFMANN-LA ROCHE AG, priority 1987, dated 1989).
Blank lines part the entries; values can stand above or below the compound they belong to.

How the values were obtained:
[1] = apparent partition coefficient n-octanol / phosphate buffer pH 7,4 (method of Hansch et al.); type: physicochemical; conditions: n-octanol / aqueous phosphate buffer pH 7,4
Source text: Wie oben erwähnt, zeigen die erfindungsgemässen Verbindungen grössere Stabilität und Lipophilität als bekannte Nucleotidderivate. In der nachstehenden Tabelle I sind für ausgewählte erfindungsgemässe Verbindungen die gemessenen Verteilungskoeffizienten angegeben, die wiederum ein Anzeichen für die Lipophilität der Verbindung darstellt. Tabelle I

[2] = stability in methanol/water (HPLC); type: physicochemical
Source text: (§1) Die Stabilität ausgewählter erfindungsgemässer Verbindungen in Methanol/Wasser oder menschlichem Blutplasma wurde wie nachstehend angegeben geprüft:
(§2) Zunächst wurden die HPLC-Bedingungen für die Probenmessung bestimmt, d.h. eine Revers-Phasen C-18-Säule mit einem Lösungsmittelsystem mit variierenden Verhältnissen von Methanol: […] Natriumphosphat, pH 6,8.
(§3) Danach wurde die maximale UV-Absorption für jede Probe und die grösste Stabilität unter Laborbedingungen für jede Probe in Methanol:Wasser bestimmt. Danach wurde die Stabilität im menschlichen Plasma untersucht.
(§4) Die HPLC-Apparatur war ein Gradientsystem bestehend aus einem Modell 1601 Gradient Master, einer Constametric I Pumpe und einer Constametric III Pumpe. Weiterhin wurden ein LDC-Spectromometer III als Detektor und ein Waters 712B Wisp Autoinjektor verwendet. Allen Proben wurde eine ODS-3 RAC II, 5 µ, 15 cm x 4,0 mm ID-Säule (Whatmann, Clifton, N.J.) verwendet. Das Lösungsmittelsystem bestand aus Methanol: 0,001M NaH₂PO₄ (pH 6,8) in den folgenden Proportionen: 1b, 2b - 50:50; 1a, 2a - 43:57; 1c, 2c - 50:50.
Jede Verbindung wurde in ein konisches 15 ml Teströhrchen eingewogen und in DMSO gelöst, so dass eine Vorratslösung von 10 mg/ml erhalten wurde. Die Proben für die Standardkurve wurden durch Verdünnen der DMSO-Vorratslösung mit der mobilen Phasen wie folgt hergestellt:
(§5) Die chromatographischen Daten wurden mit einem Nelson 3000 Datasystem gesammelt. Peakhöhen der Kalibrierungs-Standards jeder Verbindung wurden gemessen und gegen bekannte Konzentrationen aufgetragen. Eine lineare Kurve der kleinsten Quadrate (ungewichtet) wurde berechnet und alle Probenkonzentrationen wurden aus dieser Kurve rückgerechnet. Die Resultate sind in den Tabellen II-VIII zusammengestellt. Tabelle II

[3] = stability in human plasma at 37°C (HPLC); type: in vitro ADME; conditions: human plasma 37°C; for % N, O-Diacyl (1a): incubated 1a; for % N, O-Diacyl (1b): incubated 1b; for % N, O-Diacyl (1c): incubated 1c; for % N-Acyl (2a): incubated 2a; for % N-Acyl (2b): incubated 2b; for % N-Acyl (2c): incubated 2c
Source text: as §1
Die folgenden Verbindungen wurden auf Stabilität im menschlichen Plasma geprüft:
as §2, §3
Das im Experiment verwendete menschliche Plasma wurde bis zur Verwendung eingefroren.
as §4
Jede Verbindung wurde in ein konisches 15 ml Teströhrchen eingewogen und in DMSO gelöst, so dass eine Vorratslösung von 10 mg/ml erhalten wurde. Die Proben für die Standardkurve wurden durch Verdünnen der DMSO-Vorratslösung mit der mobilen Phasen wie folgt hergestellt: […]
as §5

SMILES: Nc1ccn([C@H]2C=C[C@@H](CO)O2)c(=O)n1 [2′,3′-Didehydro-2′,3′-dideoxycytidin, reference compound]
Scheinbarer Verteilungskoeffizient zwischen n-Octanol und Phosphatpuffer pH 7,4 [1]: 0.03

SMILES: CC(=O)OC[C@@H]1CC[C@H](n2ccc(N)nc2=O)O1 [2′,3′-Dideoxycytidin 5′-acetat]
Scheinbarer Verteilungskoeffizient zwischen n-Octanol und Phosphatpuffer pH 7,4 [1]: 0.14

SMILES: Nc1ccn([C@H]2CC[C@@H](CO)O2)c(=O)n1 [2′,3′-Dideoxycytidin, reference compound]
Scheinbarer Verteilungskoeffizient zwischen n-Octanol und Phosphatpuffer pH 7,4 [1]: 0.05

SMILES: CC(=O)Nc1ccn([C@H]2C=C[C@@H](COC(C)=O)O2)c(=O)n1 [N-Acetyl 2′,3′-didehydro-2′,3′-dideoxycytidin 5′-acetat]
Scheinbarer Verteilungskoeffizient zwischen n-Octanol und Phosphatpuffer pH 7,4 [1]: 0.39

SMILES: CC(=O)Nc1ccn([C@H]2CC[C@@H](COC(C)=O)O2)c(=O)n1 [N-Acetyl 2′,3′-dideoxycytidin 5′-acetat]
Scheinbarer Verteilungskoeffizient zwischen n-Octanol und Phosphatpuffer pH 7,4 [1]: 0.62

SMILES: CC(=O)Nc1ccn([C@H]2CC[C@@H](CO)O2)c(=O)n1 [N-Acetyl 2′,3′-dideoxycytidin]
Scheinbarer Verteilungskoeffizient zwischen n-Octanol und Phosphatpuffer pH 7,4 [1]: 0.22

SMILES: O=C(Nc1ccn([C@H]2CC[C@@H](CO)O2)c(=O)n1)c1ccccc1 [N-Benzoyl 2′,3′-dideoxycytidin]
Scheinbarer Verteilungskoeffizient zwischen n-Octanol und Phosphatpuffer pH 7,4 [1]: 15.0

SMILES: CCCCCCCCCCCCCCCC(=O)Nc1ccn([C@H]2CC[C@@H](COC(=O)CCCCCCCCCCCCCCC)O2)c(=O)n1 [N-Palmitoyl 2′,3′-dideoxycytidin 5′-palmitoat]
Scheinbarer Verteilungskoeffizient zwischen n-Octanol und Phosphatpuffer pH 7,4 [1]: > 1000

More lines, now with the values ahead:

Scheinbarer Verteilungskoeffizient zwischen n-Octanol und Phosphatpuffer pH 7,4 [1]: 6.8
% N, O-Diacyl (1a,1b,1c) ([2]; time 0 days): 100%
% N, O-Diacyl (1a,1b,1c) ([2]; time 14 days): 43%
% N-Acyl (2a,2b, 2c) ([2]; time 14 days): 18%
% O-Acyl- (3a,3b,3c) ([2]; time 14 days): 27%
% N, O-Diacyl (1a) ([3]; time 0 (Tage)): 86%
% N, O-Diacyl (1a) ([3]; time 0,5 (Tage)): 70%
% N, O-Diacyl (1a) ([3]; time 1 (Tage)): 40%
% N, O-Diacyl (1a) ([3]; time 2 (Tage)): 17%
% N, O-Diacyl (1a) ([3]; time 4 (Tage)): 10%
% N, O-Diacyl (1a) ([3]; time 24 (Tage)): 1%
SMILES: CCC(=O)Nc1ccn([C@H]2CC[C@@H](COC(=O)CC)O2)c(=O)n1 [Verbindung 1a, N-Propanoyl 2′,3′-dideoxycytidin 5′-propanoat]

Scheinbarer Verteilungskoeffizient zwischen n-Octanol und Phosphatpuffer pH 7,4 [1]: 58.0
% N, O-Diacyl (1a,1b,1c) ([2]; time 0 days): 100%
% N, O-Diacyl (1a,1b,1c) ([2]; time 14 days): 73%
% N-Acyl (2a,2b, 2c) ([2]; time 14 days): 8%
% O-Acyl- (3a,3b,3c) ([2]; time 14 days): 17%
% ddC 4 ([2]; time 14 days): 2%
% N, O-Diacyl (1b) ([3]; time 0 (Tage)): 95%
% N, O-Diacyl (1b) ([3]; time 0,5 (Tage)): 83%
% N, O-Diacyl (1b) ([3]; time 1 (Tage)): 38%
% N, O-Diacyl (1b) ([3]; time 2 (Tage)): 9%
% N, O-Diacyl (1b) ([3]; time 4 (Tage)): 4%
% N, O-Diacyl (1b) ([3]; time 24 (Tage)): 3%
SMILES: CC(C)C(=O)Nc1ccn([C@H]2CC[C@@H](COC(=O)C(C)C)O2)c(=O)n1 [Verbindung 1b, N-(2-Methylpropanoyl) 2′,3′-dideoxycytidin 5′-(2-methylpropanoat)]

Scheinbarer Verteilungskoeffizient zwischen n-Octanol und Phosphatpuffer pH 7,4 [1]: 70.0
% N, O-Diacyl (1a,1b,1c) ([2]; time 0 days): 100%
% N, O-Diacyl (1a,1b,1c) ([2]; time 14 days): 43%
% N-Acyl (2a,2b, 2c) ([2]; time 14 days): 20%
% O-Acyl- (3a,3b,3c) ([2]; time 14 days): 32%
% ddC 4 ([2]; time 14 days): 25%
% N, O-Diacyl (1c) ([3]; time 0 (Tage)): 64%
% N, O-Diacyl (1c) ([3]; time 0,5 (Tage)): 23%
% N, O-Diacyl (1c) ([3]; time 1 (Tage)): 10%
% N, O-Diacyl (1c) ([3]; time 2 (Tage)): 7%
% N, O-Diacyl (1c) ([3]; time 4 (Tage)): 6%
% N, O-Diacyl (1c) ([3]; time 24 (Tage)): 6%
SMILES: CCCC(=O)Nc1ccn([C@H]2CC[C@@H](COC(=O)CCC)O2)c(=O)n1 [Verbindung 1c, N-Butanoyl 2′,3′-dideoxycytidin 5′-butanoat]

Scheinbarer Verteilungskoeffizient zwischen n-Octanol und Phosphatpuffer pH 7,4 [1]: 0.83
% N-Acyl (2a,2b, 2c) ([2]; time 0 days): 100%
% N-Acyl (2a,2b, 2c) ([2]; time 14 days): 56%
% ddC 4 ([2]; time 14 days): 28%
% N-Acyl (2a) ([3]; time 0 (Tage)): 97%
% N-Acyl (2a) ([3]; time 0,5 (Tage)): 87%
% N-Acyl (2a) ([3]; time 1 (Tage)): 85%
% N-Acyl (2a) ([3]; time 2 (Tage)): 96%
% N-Acyl (2a) ([3]; time 4 (Tage)): 99%
% N-Acyl (2a) ([3]; time 24 (Tage)): 80%
SMILES: CCC(=O)Nc1ccn([C@H]2CC[C@@H](CO)O2)c(=O)n1 [Verbindung 2a, N-Propanoyl 2′,3′-dideoxycytidin]

Scheinbarer Verteilungskoeffizient zwischen n-Octanol und Phosphatpuffer pH 7,4 [1]: 2.38
% N-Acyl (2a,2b, 2c) ([2]; time 0 days): 100%
% N-Acyl (2a,2b, 2c) ([2]; time 14 days): 83%
% O-Acyl- (3a,3b,3c) ([2]; time 14 days): 17%
% ddC 4 ([2]; time 14 days): 2%
% N-Acyl (2b) ([3]; time 0 (Tage)): 83%
% N-Acyl (2b) ([3]; time 0,5 (Tage)): 88%
% N-Acyl (2b) ([3]; time 1 (Tage)): 61%
% N-Acyl (2b) ([3]; time 2 (Tage)): 78%
% N-Acyl (2b) ([3]; time 4 (Tage)): 89%
% N-Acyl (2b) ([3]; time 24 (Tage)): 92%
SMILES: CC(C)C(=O)Nc1ccn([C@H]2CC[C@@H](CO)O2)c(=O)n1 [Verbindung 2b, N-(2-Methylpropanoyl) 2′,3′-dideoxycytidin]

Scheinbarer Verteilungskoeffizient zwischen n-Octanol und Phosphatpuffer pH 7,4 [1]: 2.67
% N-Acyl (2a,2b, 2c) ([2]; time 0 days): 100%
% N-Acyl (2a,2b, 2c) ([2]; time 14 days): 76%
% ddC 4 ([2]; time 14 days): 20%
% N-Acyl (2c) ([3]; time 0 (Tage)): 101%
% N-Acyl (2c) ([3]; time 0,5 (Tage)): 95%
% N-Acyl (2c) ([3]; time 1 (Tage)): 92%
% N-Acyl (2c) ([3]; time 2 (Tage)): 90%
% N-Acyl (2c) ([3]; time 4 (Tage)): 85%
% N-Acyl (2c) ([3]; time 24 (Tage)): 77%
SMILES: CCCC(=O)Nc1ccn([C@H]2CC[C@@H](CO)O2)c(=O)n1 [Verbindung 2c, N-Butanoyl 2′,3′-dideoxycytidin]
